Laboratory results from patent US12630498B2 (Genzyme Corporation, priority 2019, dated 2026).

Target: T1, human Cystic Fibrosis Transmembrane Conductance Regulator (CFTR) harboring the ΔF508 mutation (Homo sapiens, UniProt P13569, DEL508-508)
T1 construct: expressed in transfected cells; host or cells: H441 carcinoma line (G418-selected)
Experiment: H441 cell ΔF508-CFTR-HRP cell surface assay (Emax and EC50)
Assay type: cell-based
Details: for Emax: NCI-H441, NA = Not active
Description: Example 315: H441 Cell Emax and EC50 Two cell lines were used, the H441 carcinoma line and the CFHBE41o- (41o-) human bronchial epithelial line. Both cell lines expressed human Cystic Fibrosis Transmembrane Conductance Regulator (CFTR) harboring the ΔF508 mutation and with an in-frame fusion in CFTR extracellular loop 4 of Horse Radish Peroxidase (HRP) under control of the CMV promoter. In the presence of the HRP tag, ΔF508-CFTR transported to the cell surface was detectable upon addition of an HRP substrate (Luminata Forte). Both cell types were cultivated at 37° C. with CO2. […] For both cell types, the medium was changed every other day unless the culture was at low % confluence. Cells were used for the assays at 75% confluence. To a polypropylene (PP) 384-well plate, 15 pls DMSO was added to all wells in columns 1-22 and 24 (low Control). 15 μls of 260 μM VX809 (Lumacaftor), Selleckchem […], was added to column 23 wells (high Control). 15 pls of 10 mM test compound or VX809 (control) were added to wells of row A. Serial dilutions of Row A compound were performed 2×15 pls in rows A through 0 (15-point). A PP, 384-well plate containing the appropriate cell culture medium was prepared for each assay plate with 100 pls per well. For the doxycycline-induced 41o-cells, doxycycline for both the assay plate and the medium dilution plate was added at 0.0005 mg/ml to the medium. Both cell lines were plated for the assay at 30 pls per 384-well at 3.4×10 e^5 cells per ml ( 10K cells/well). H441 cells were plated on opaque, white, Corning plate 3704. 41o-cells were plated on collagen-coated opaque, white, Corning plate 356665. For 41o-cells, doxycycline was added to the medium. Using FX (Beckman) protocol, 10 pls diluted compound or medium was added per well to the Assay Plate as: 2 pls DMSO Dilution plate well was diluted in 100 pls of the Medium Dilution Plate well, mixed, and 10 pls was transferred to the Assay Plate. The final assay dilution series was 24.5, 12.3, 6.1, 3.1, 1.5, 0.8, 0.4, 0.2, 0.1, 0.05, 0.02, 0.01, 0.006, 0.003, 0.001 and 0 μM. The 41o-assay plates were incubated at 37° C. w/CO2, the H441 assay plates were incubated at 27° C. w/CO2, each overnight for two nights. After being brought to room temperature, the assay plate liquid was removed. 30 uls of Luminata Forte (Millipore ELLUF0100) was added per well and incubated at room temperature for 10 min. The plates were then read on a Topcount, protocol LumiMatti (CPS, luminescence). The data was analyzed for % of maximum, maximum VX809 signal, and EC50 using Pearl and SPEED tools.

T1 sequence (P13569 with tags, fused parts or gaps DEL508-508): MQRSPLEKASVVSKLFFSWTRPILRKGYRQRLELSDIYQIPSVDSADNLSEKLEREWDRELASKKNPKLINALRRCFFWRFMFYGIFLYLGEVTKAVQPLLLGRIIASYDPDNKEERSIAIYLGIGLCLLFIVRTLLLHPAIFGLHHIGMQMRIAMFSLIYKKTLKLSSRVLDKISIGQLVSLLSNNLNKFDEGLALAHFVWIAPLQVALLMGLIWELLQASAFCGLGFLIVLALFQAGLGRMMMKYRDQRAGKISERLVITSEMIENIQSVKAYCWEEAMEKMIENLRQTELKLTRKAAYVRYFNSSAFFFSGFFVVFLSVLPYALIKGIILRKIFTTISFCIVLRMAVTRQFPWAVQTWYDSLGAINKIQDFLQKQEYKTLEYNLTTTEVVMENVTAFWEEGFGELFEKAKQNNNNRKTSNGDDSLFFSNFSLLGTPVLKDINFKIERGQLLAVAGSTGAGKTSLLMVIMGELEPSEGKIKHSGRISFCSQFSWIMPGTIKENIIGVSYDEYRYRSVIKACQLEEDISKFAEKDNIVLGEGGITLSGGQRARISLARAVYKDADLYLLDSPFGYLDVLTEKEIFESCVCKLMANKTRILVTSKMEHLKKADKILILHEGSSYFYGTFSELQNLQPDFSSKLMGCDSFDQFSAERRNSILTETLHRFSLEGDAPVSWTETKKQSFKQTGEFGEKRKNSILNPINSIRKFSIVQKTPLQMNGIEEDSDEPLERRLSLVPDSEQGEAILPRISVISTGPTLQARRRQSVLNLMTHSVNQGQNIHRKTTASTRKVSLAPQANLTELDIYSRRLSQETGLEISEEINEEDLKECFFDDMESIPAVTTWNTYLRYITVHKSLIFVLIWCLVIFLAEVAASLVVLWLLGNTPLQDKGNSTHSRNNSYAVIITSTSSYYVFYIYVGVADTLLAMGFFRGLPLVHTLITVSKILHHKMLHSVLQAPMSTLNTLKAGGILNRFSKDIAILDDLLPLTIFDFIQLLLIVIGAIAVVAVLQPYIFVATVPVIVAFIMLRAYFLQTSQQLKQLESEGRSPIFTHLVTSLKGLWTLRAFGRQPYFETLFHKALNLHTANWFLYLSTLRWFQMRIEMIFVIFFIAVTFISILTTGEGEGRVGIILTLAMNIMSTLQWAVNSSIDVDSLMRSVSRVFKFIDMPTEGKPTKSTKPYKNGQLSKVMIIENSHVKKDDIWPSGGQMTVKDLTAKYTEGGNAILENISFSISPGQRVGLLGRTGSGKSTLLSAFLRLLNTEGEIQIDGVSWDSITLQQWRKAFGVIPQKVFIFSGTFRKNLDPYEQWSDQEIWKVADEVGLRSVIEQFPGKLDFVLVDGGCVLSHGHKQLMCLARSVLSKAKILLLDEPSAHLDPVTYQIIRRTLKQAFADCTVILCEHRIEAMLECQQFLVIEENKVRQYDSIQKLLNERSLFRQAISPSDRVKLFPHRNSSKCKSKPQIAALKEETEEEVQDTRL

Compound	EC50 [nM]	Emax [%]
CC1([C@H](NC(=O)c2ccc3cc(F)ccc3c2OCc2ccc(OC(F)(F)F)cc2)C(=O)O)CC1 [Example 30, (S)-2-(6-fluoro-1-((4-(trifluoromethoxy)benzyl)oxy)-2-naphthamido)-2-(1-methylcyclopropyl)acetic Acid]	2000	57.5
CCC(C)(C)[C@H](NC(=O)c1ccc2cc(OC)ccc2c1OCc1ccc(SC(F)(F)F)cc1)C(=O)O [Example 32, (S)-2-(6-methoxy-1-((4-((trifluoromethyl)thio)benzyl)oxy)-2-naphthamido)-3,3-dimethylpentanoic Acid]	1500	44.3
CCC(C)(C)[C@H](NC(=O)c1ccc2ccccc2c1OCc1ccc(S(C)(=O)=O)cc1)C(=O)O [Example 53, (S)-3,3-dimethyl-2-(1-((4-(methylsulfonyl)benzyl)oxy)-2-naphthamido)pentanoic Acid]	22900	19.8
CC1(C(NC(=O)c2ccc3cc(F)ccc3c2OCC2CCC(F)(F)CC2)C(=O)O)CCCCC1 (stereo not drawn) [Example 54, 2-(1-((4,4-difluorocyclohexyl)methoxy)-6-fluoro-2-naphthamido)-2-(1-methylcyclohexyl)acetic Acid]	2400	56.1
CC(C)(C)[C@H](NC(=O)c1ccc2ccccc2c1OCc1ccc(OC(F)(F)F)cc1)C(=O)O [Example 65, (S)-3,3-dimethyl-2-(1-((4-(trifluoromethoxy)benzyl)oxy)-2-naphthamido)butanoic Acid]	4400	8.7
CC(C)(C)[C@H](NC(=O)c1ccc2ccccc2c1OCc1ccc(S(C)(=O)=O)cc1)C(=O)O [Example 66, (S)-3,3-dimethyl-2-(1-((4-(methylsulfonyl)benzyl)oxy)-2-naphthamido)butanoic Acid]	2100	12.8
CC(C)(C)[C@H](NC(=O)c1ccc2ccccc2c1OCc1ccc2c(c1)OCO2)C(=O)O [Example 79, (S)-2-(1-(benzo[d][1,3]dioxol-5-ylmethoxy)-2-naphthamido)-3,3-dimethylbutanoic Acid]	2500	9.1
O=C(N[C@H](Cc1ccccc1)C(=O)O)c1ccc2ccccc2c1OCc1ccc(C(F)(F)F)cc1 [Example 89, (1-((4-(trifluoromethyl)benzyl)oxy)-2-naphthoyl)-D-phenylalanine]	1400	47.6
C=CCOc1ccc(C[C@H](NC(=O)c2ccc3ccccc3c2OCc2ccc(C(F)(F)F)cc2)C(=O)O)cc1 [Example 92, (S)-3-(4-(allyloxy)phenyl)-2-(1-((4-(trifluoromethyl)benzyl)oxy)-2-naphthamido)propanoic Acid]	14000	52.6
O=C(N[C@@H](Cc1ccccc1)C(=O)O)c1ccc2ccccc2c1OCc1ccc(Cl)cc1 [Example 98, (1-((4-chlorobenzyl)oxy)-2-naphthoyl)-L-phenylalanine]		6
O=C(N[C@@H](Cc1ccncc1)C(=O)O)c1ccc2ccccc2c1OCc1ccc(C(F)(F)F)cc1 [Example 103, (S)-3-(pyridin-4-yl)-2-(1-((4-(trifluoromethyl)benzyl)oxy)-2-naphthamido)propanoic Acid]		22.4

Second part, the compound after the results:

EC50 [nM]	Emax [%]	Compound
3800	78.4	CCC(C)(C)[C@H](NC(=O)c1ccc2cc(F)ccc2c1OCC1CCC(F)(F)CC1)C(=O)O [Example 34, (S)-2-(1-((4,4-difluorocyclohexyl)methoxy)-6-fluoro-2-naphthamido)-3,3-dimethylpentanoic Acid]
1100	80.8	COc1ccc2c(OCc3ccc(C(F)(F)F)cc3)c(C(=O)N[C@H](C(=O)O)C(C)(C)C)ccc2c1 [Example 38, (S)-2-(6-methoxy-1-((4-(trifluoromethyl)benzyl)oxy)-2-naphthamido)-3,3-dimethylbutanoic Acid]
15400	60.7	CC1(C(NC(=O)c2ccc3ccccc3c2OC[C@H]2CC[C@@H](C(F)(F)F)CC2)C(=O)O)CCCCC1 (stereo partly drawn) [Example 39, 2-(1-methylcyclohexyl)-2-(1-(((1s,4s)-4-(trifluoromethyl)cyclohexyl)methoxy)-2-naphthamido)acetic Acid]
5100	19.9	CC1(C(NC(=O)c2ccc3ccccc3c2OCc2ccc(S(C)(=O)=O)cc2)C(=O)O)CCCCC1 (stereo not drawn) [Example 44, 2-(1-methylcyclohexyl)-2-(1-((4-(methylsulfonyl)benzyl)oxy)-2-naphthamido)acetic Acid]
3500	26.9	CC(C)(C)[C@H](NC(=O)c1ccc2ccccc2c1OCc1ccc(Br)cc1)C(=O)O [Example 46, (S)-2-(1-((4-bromobenzyl)oxy)-2-naphthamido)-3,3-dimethylbutanoic Acid]
1500	33.5	C=C(C)C1CC=C(COc2c(C(=O)N[C@H](C(=O)O)C(C)(C)C)ccc3ccccc23)CC1 (stereo partly drawn) [Example 49, (2S)-3,3-dimethyl-2-(1-((4-(prop-1-en-2-yl)cyclohex-1-en-1-yl)methoxy)-2-naphthamido)butanoic Acid]
1600	90.3	CC1(C(NC(=O)c2ccc3cc(F)ccc3c2OCc2ccc(C(F)(F)F)cc2)C(=O)O)CC1 (stereo not drawn) [Example 60, 2-(6-fluoro-1-((4-(trifluoromethyl)benzyl)oxy)-2-naphthamido)-2-(1-methylcyclopropyl)acetic Acid]
1500	43.6	COc1ccc2c(OCc3ccc(SC(F)(F)F)cc3)c(C(=O)N[C@H](C(=O)O)C(C)(C)C)ccc2c1 [Example 63, (S)-2-(6-methoxy-1-((4-((trifluoromethyl)thio)benzyl)oxy)-2-naphthamido)-3,3-dimethylbutanoic Acid]
7100	58.3	CC(C)(C)[C@H](NC(=O)c1ccc2cc(F)ccc2c1OCC1CCC(F)(F)CC1)C(=O)O [Example 76, (S)-2-(1-((4,4-difluorocyclohexyl)methoxy)-6-fluoro-2-naphthamido)-3,3-dimethylbutanoic Acid]
1400	58.9	CCC(C)(C)[C@H](NC(=O)c1ccc2cc(OC)ccc2c1OCc1ccc(C(F)(F)F)cc1)C(=O)O [Example 83, (S)-2-(6-methoxy-1-((4-(trifluoromethyl)benzyl)oxy)-2-naphthamido)-3,3-dimethylpentanoic Acid]
2100	103	O=C(N[C@@H](Cc1ccccc1)C(=O)O)c1ccc2ccccc2c1OCc1ccc(C(F)(F)F)cc1 [Example 87, (1-((4-(trifluoromethyl)benzyl)oxy)-2-naphthoyl)-L-phenylalanine]
16400	44.3	O=C(N[C@@H](Cc1ccccc1)C(=O)O)c1ccc2ccccc2c1OCc1ccc([N+](=O)[O-])cc1 [Example 91, (1-((4-nitrobenzyl)oxy)-2-naphthoyl)-L-phenylalanine]
6700	79.1	COC(=O)[C@H](Cc1ccccc1)NC(=O)c1ccc2ccccc2c1OCc1ccc(Cl)c(Cl)c1 [Example 101, Methyl (1-((3,4-dichlorobenzyl)oxy)-2-naphthoyl)-L-phenylalaninate]
8000	33.7	O=C(N[C@@H](Cc1ccccc1)C(=O)O)c1ccc2ccccc2c1OCc1cccc2c1OC(F)(F)O2 [Example 102, (1-((2,2-difluorobenzo[d][1,3]dioxol-4-yl)methoxy)-2-naphthoyl)-L-phenylalanine]
